The values that follow come from ChEMBL document CHEMBL1201862, “PubChem BioAssay data set” (2004).

Some test systems named below: MDA-N; UACC-62; HL-60; COLO 205; OVCAR-4; TK-10; RPMI-8226; OVCAR-8; HOP-92; BT-549; K562; 786-0; HCC 2998; DU-145; SK-OV-3; Hs-578T; SF-268; UACC-257; NCI-H522.
What all share (experiment): NCI anticancer screen, dose series, 48 h

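Results reflect a 48-hour exposure of cells in 96-well plates to compound at five concentrations. GI50 marks 50% less growth.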 The source made the active and inactive calls. Rule as the data show it: active = GI50 up to about 1.1 µM and inactive = higher. A value given as a limit tells only on which side of the number the result lay.

For `O=C1CC2SC(COCc3ccccc3)(CCN2Cc2ccccc2)C1` (stereo not drawn), the GI50 in the assay on MDA-N was 71.4 µM (inactive); in the assay with UACC-62, 81.1 µM (inactive); in the assay with HL-60 it was 18 µM (inactive); in the assay with COLO 205 it was 39.1 µM (inactive); in the assay with OVCAR-4 it was 61.9 µM (inactive); in the assay with TK-10 it was 19.9 µM (inactive). In addition, the GI50 was 30.2 µM (inactive) in the assay on RPMI-8226; > 100 µM (inactive) in the assay on OVCAR-8; 45.6 µM (inactive) in the assay on HOP-92; 51.1 µM (inactive) with BT-549; 38.1 µM (inactive) with K562; > 100 µM (inactive) in the assay on 786-0. Besides, the GI50 in the assay on HCC 2998 is > 100 µM (inactive); with DU-145, > 100 µM (inactive); in the assay with SK-OV-3, > 100 µM (inactive); with Hs-578T, > 100 µM (inactive); in the assay with SF-268 it was > 100 µM (inactive); with UACC-257, 37.1 µM (inactive). Besides, the GI50 with NCI-H522 is 56.8 µM (inactive).
For the molecule `CC12CCC(C(=O)n3c1nc1ccccc13)C(C)(C)O2` (stereo not drawn), the GI50 in the assay with MDA-N, in the assay with UACC-62, in the assay with HL-60, in the assay on COLO 205, with OVCAR-4 and with TK-10 was > 100 µM (inactive) each time. The GI50 in the assay with RPMI-8226, in the assay on OVCAR-8, in the assay with HOP-92, with BT-549, with K562 and in the assay with 786-0 was > 100 µM (inactive) in each case. Also, the GI50 is > 100 µM (inactive) in the assay with HCC 2998; > 100 µM (inactive) with DU-145; > 100 µM (inactive) in the assay on SK-OV-3; 16.3 µM (inactive) in the assay on Hs-578T; > 100 µM (inactive) in the assay with SF-268; > 100 µM (inactive) in the assay on UACC-257. Further, the GI50 in the assay on NCI-H522 was 47.6 µM (inactive).
As to `CC1CNC(c2ccc(CN3CCC(C4CCN(Cc5ccc(C6=NC(C)CN6)cc5)CC4)CC3)cc2)=N1` (stereo not drawn), the GI50 in the assay on MDA-N is 21.3 µM (inactive); with UACC-62 it was 19.9 µM (inactive); in the assay on HL-60, 36.1 µM (inactive); in the assay with COLO 205, 18.6 µM (inactive); in the assay on OVCAR-4, 16.8 µM (inactive); with TK-10 it was 22.4 µM (inactive). Further, the GI50 in the assay with RPMI-8226 is 19.5 µM (inactive); in the assay on OVCAR-8, 29.6 µM (inactive); with HOP-92 it was 75.7 µM (inactive); in the assay on BT-549, > 100 µM (inactive); with K562, 16.7 µM (inactive); with 786-0, 19.1 µM (inactive). The GI50 in the assay with HCC 2998 was 14.6 µM (inactive); in the assay on DU-145 it was 16.2 µM (inactive); in the assay on SK-OV-3 it was 16.3 µM (inactive); in the assay with Hs-578T it was 18.6 µM (inactive); in the assay on SF-268, 22.4 µM (inactive); in the assay with UACC-257, 24.2 µM (inactive). The GI50 in the assay on NCI-H522 is 15 µM (inactive).
As for `CC[C@H]1C=CCC[C@@]2(C[C@@H]3CC[C@@H]4[C@H](C(=O)OCCCCCCCCCCCCCCCC(=O)N(CCCN)C[C@@H](O)CCN)[C@]5(CCC[C@@H](C)O5)NC(=[N+]34)N2)O1`, the GI50 with MDA-N is 0.127 µM (active); in the assay with UACC-62, 0.0678 µM (active); in the assay on HL-60, 0.318 µM (active); in the assay with COLO 205, 0.316 µM (active); in the assay with OVCAR-4, 0.474 µM (active); with TK-10 it was 1.44 µM (inactive). Moreover, the GI50 is 0.0855 µM (active) in the assay on RPMI-8226; 0.451 µM (active) in the assay on OVCAR-8; 0.158 µM (active) in the assay on HOP-92; 0.807 µM (active) in the assay on BT-549; 0.236 µM (active) in the assay with K562; 0.143 µM (active) with 786-0. Further, the GI50 with HCC 2998 was 0.175 µM (active); in the assay with DU-145 it was 0.731 µM (active); with SK-OV-3, 2.05 µM (inactive); in the assay with Hs-578T, 1.21 µM (inactive); in the assay with SF-268, 0.544 µM (active); with UACC-257 it was 0.122 µM (active). In the assay with NCI-H522, the GI50 is 0.174 µM (active).
For the molecule `COC12C=CC(CC1)C(C)(C)C2OS(C)(=O)=O` (stereo not drawn), the GI50 in the assay on MDA-N, in the assay with UACC-62, with HL-60, in the assay with COLO 205, with OVCAR-4 and in the assay on TK-10 was > 100 µM (inactive) in each case. Further, the GI50 in the assay on RPMI-8226, with OVCAR-8, with HOP-92, with BT-549, with K562 and in the assay on 786-0 was > 100 µM (inactive) throughout. Moreover, the GI50 in the assay on HCC 2998, in the assay with DU-145, in the assay with SK-OV-3, in the assay on Hs-578T, in the assay with SF-268 and in the assay with UACC-257 was > 100 µM (inactive) throughout. Further, in the assay on NCI-H522, the GI50 was > 100 µM (inactive).
Take `O=C(c1ccccc1)c1cc[n+](C2=C([N-]S(=O)(=O)c3ccccc3)C(=O)c3ccccc3C2=O)cc1`: the GI50 with MDA-N was 1.86 µM (inactive); in the assay on UACC-62, 1.88 µM (inactive); with HL-60, 2.15 µM (inactive); in the assay with COLO 205, 13.7 µM (inactive); with OVCAR-4, 13.1 µM (inactive); in the assay with TK-10, 18.3 µM (inactive). For the same molecule, the GI50 in the assay on RPMI-8226 was 3.3 µM (inactive); in the assay with OVCAR-8, 13 µM (inactive); in the assay on HOP-92 it was 8.61 µM (inactive); with BT-549, 6.76 µM (inactive); in the assay on K562, 2.65 µM (inactive); in the assay with 786-0 it was 7.13 µM (inactive). For the same molecule, the GI50 was 11.4 µM (inactive) in the assay on HCC 2998; 13.9 µM (inactive) in the assay on DU-145; 15.4 µM (inactive) in the assay with SK-OV-3; 3.66 µM (inactive) with Hs-578T; 11.5 µM (inactive) with SF-268; 11.6 µM (inactive) in the assay with UACC-257. Moreover, in the assay on NCI-H522, the GI50 is 4.74 µM (inactive).
For the molecule `COc1ccc2c(c1)[C@@]13CCCC[C@H]1[C@@H](C2)N(C)CC3=O`, the GI50 is 15.3 µM (inactive) with MDA-N; 16.9 µM (inactive) in the assay with UACC-62; 8.04 µM (inactive) in the assay with HL-60; 17.3 µM (inactive) in the assay on COLO 205; 16.1 µM (inactive) in the assay on OVCAR-4; 19 µM (inactive) with TK-10. For the same molecule, the GI50 in the assay with RPMI-8226 is 25.6 µM (inactive); with OVCAR-8, 19.3 µM (inactive); in the assay with HOP-92, 13.6 µM (inactive); in the assay with BT-549, 17.4 µM (inactive); in the assay with K562, 28 µM (inactive); in the assay with 786-0 it was 17.9 µM (inactive). The GI50 in the assay with HCC 2998 was 16.8 µM (inactive); with DU-145, 21.8 µM (inactive); with SK-OV-3 it was 16 µM (inactive); with Hs-578T, 19.2 µM (inactive); in the assay on SF-268, 17.2 µM (inactive); in the assay with UACC-257, 16.5 µM (inactive). Also, the GI50 in the assay on NCI-H522 is 18.3 µM (inactive).
